Several values for one entry are separate records, joined by “and”; a condition that tells them apart may be missing. Identical values can stand only once. Like-named read-outs stand apart in the source and are kept apart here.

Here are results for five compounds from US20080114047A1 (priority 2003, published 2008).

One series has as its system Candida albicans. Kind of series: Anti-fungal data: Candida albicans. It is filed as cell-based. The note with it: for MFC / MIC80: strain A39; for MIC: strain A39, read-out: Candida albicans (A39) MIC100.
The subject of the next series is Plasmodium falciparum. Kind of series: Anti-protozoan data: P. falcip. IC50. The class given is cell-based. The following applies: read-out: P. falcip. IC50.
The subject of another series is Cryptococcus neoformans. Kind of series: Anti-fungal data: Cryptococcus neoformans. It is filed as cell-based. The following applies: for MFC / MIC80: strain H99; for MIC: strain H99, read-out: Cryptococcus neoformans (H99) MIC100.
In a further series the test system is Aspergillus fumigatus. In words: Anti-fungal data: Aspergillus fumigatus. The note with it: for MIC: strain DUMC 168.95, read-out: Aspergillus. Fumigatus (DUMC 168.95) MIC100. It is filed as cell-based.
The test system of series [1] is Mycobacterium tuberculosis. Kind of series: Compounds tested against Mycobacterium tuberculosis (MIC90). The class given is cell-based. The following applies: read-out: M. tb. MIC90.
The next series has as its system J774 macrophages. In words: Toxicity against J774 macrophages (IC50). It is filed as cell-based. The following applies: Mus musculus, Tables I-III, V.
Series [2] has as its system L. donovani axenic amastigotes. In words: In vitro anti-leishmania activity (IC50 vs. L. donovani axenic amastigotes). The class given is cell-based. The note with it: for IC50: Leishmania donovani.
In a further series the test system is Trypanosoma cruzi. Kind of series: Anti-protozoan data: T. cruzi IC50. The class given is cell-based. The following applies: read-out: T. cruzi IC50.
Series [3] concerns Trypanosoma brucei rhodesiense. In words: Anti-protozoan data: T.b.r. IC50. It is filed as cell-based. The following applies: read-out: T.b.r. IC50.
The subject of another series is DNA. In words: DNA binding ΔTm. The note with it: Tables VI(a), VI(c).
Where [4] appears, read: Tables VI(a), VI(c), read-out: Leishmania donovani IC50.
[5] abbreviates: axenic amastigotes, Tables I-V, read-out: IC50 vs. L. donovani.

For orientation: MFC means the smallest concentration meeting the test's criterion for killing the fungus. A high value points to less potent killing. In general, MIC80 refers to the lowest concentration that inhibits either 80% of growth or 80% of the strains tested, depending on the study. Usually IC50 stands for the concentration that inhibits the measured activity by half. In general, MIC90 refers to the lowest concentration that inhibits either 90% of growth or 90% of the strains tested, depending on the study. Usually melting point stands for the temperature of the solid-liquid transition. `Cl.Cl.N=C(N)c1ccc(OCCCCCCOc2ccc(-c3cc4cc(C(=N)N)ccc4o3)cc2)cc1` [Compound 53, 2-(4-(6-(4-Carbamimidoylphenoxy)hexyloxy)phenyl)benzofuran-5-carboxamidine dihydrochloride] displayed a melting point of 310 to 311 °C. In addition, in the series on Candida albicans, the minimal fungicidal concentration (MFC) worked out at 3.12 µg/mL, the MIC80 was found to be 1.56 µg/mL and the MIC was determined as 3.12 µg/mL. Also, the IC50 in the series on Plasmodium falciparum (Tables VI(a), VI(c)) was found to be 263 nM. Besides, in the series with Cryptococcus neoformans, the minimum fungicidal concentration (MFC) turned out to be 6.25 µg/mL, the MIC80 amounted to 1.56 µg/mL and the MIC was determined as 3.12 µg/mL. Besides, the MIC80 in the series on Aspergillus fumigatus (strain DUMC 168.95) amounted to 12.5 µg/mL. In the series with Aspergillus fumigatus, the MIC was over 100 µg/mL. Moreover, the MIC90 in series [1] is 3.74 µg/mL and 6.84 µM. The IC50 in the series on J774 macrophages came to 600 ± 70 nM. The compound also returned an IC50 in the series “in vitro” of 3290 nM. Besides, in series [2] (setting [4]), the IC50 came out at 650 ± 170 nM. For the same compound, in [2] (setting [5]), the IC50 came out at 650 ± 170 nM. Moreover, in the series on Trypanosoma cruzi (Tables VI(a), VI(c)), the half-inhibitory concentration (IC50) is 6210 nM. In [3] (Tables VI(a), VI(c)), the IC50 stood at 368 nM.
For `Cl.Cl.N=C(N)c1ccc(OCCCOc2ccc(-c3cc4cc(C(=N)N)ccc4o3)cc2)cc1` [Compound 44, 2-(4-(3-(4-Carbamimidoylphenoxy)propoxy)phenyl)benzofuran-5-carboxamidine dihydrochloride], the melting point was 287 to 289 °C. For the same compound, in the series on Candida albicans, the minimal fungicidal concentration (MFC) worked out at 10 µg/mL, the MIC80 was at most 1 µg/mL and the MIC was at most 1 µg/mL. In the series with Plasmodium falciparum, the concentration for half-maximal inhibition (IC50) stood at 41.4 nM. This compound yielded an MIC80 in the series with Aspergillus fumigatus (strain DUMC 168.95) of 10 µg/mL. Moreover, in the series with Aspergillus fumigatus, the MIC was over 100 µg/mL. Besides, the MIC90 in series [1] was 0.45 µg/mL and 0.86 µM. In the series with J774 macrophages, this compound showed an IC50 of 2700 ± 300 nM. Also, the “DNA binding Δ Tm” value with DNA was 18.7. The compound also gave a concentration for half-maximal inhibition (IC50) in the series “in vitro” of 7320 nM. Besides, in [2] (setting [5]), the IC50 came to 780 ± 210 nM. For the same compound, in the series with Trypanosoma cruzi, the IC50 worked out at 16900 nM. Moreover, the 50% inhibitory concentration (IC50) in series [3] was 450 nM.
`CC(C)NC(=N)c1ccc(OCCCCCOc2ccc(-c3cc4ccc(C(=N)NC(C)C)cc4o3)cc2)cc1.Cl.Cl` [Compound 75, 2-(4-(5-(4-(N-Isopropylcarbamimidoyl)phenoxy)pentyloxy)phenyl)-N-isopropylbenzofuran-6-carboxamidine dihydrochloride] returned a melting point of 255 to 257 °C. Further, the IC50 in the series on Plasmodium falciparum (Tables VI(a), VI(c)) came out at 74.4 nM. Moreover, the MIC90 in [1] was 1.19 µg/mL and 1.92 µM. The half-inhibitory concentration (IC50) in the series with J774 macrophages amounted to 2700 ± 100 nM. In the series “in vitro”, this compound showed an IC50 of 10700 nM. For the same compound, the IC50 in [2] (setting [4]) came out at 1380 ± 180 nM. The IC50 in series [2] (setting [5]) was 1380 ± 180 nM. Also, the IC50 with Trypanosoma cruzi (Tables VI(a), VI(c)) came to 8920 nM. The half-inhibitory concentration (IC50) in [3] (Tables VI(a), VI(c)) turned out to be 557 nM.
Take `Cl.Cl.N=C(N)c1ccc2oc(CCc3cc4cc(C(=N)N)ccc4o3)cc2c1` [Compound 8, 2-(2-(5-Amidinobenzofuran-2-yl)ethyl)benzofuran-5-carboxamidine dihydrochloride]: the minimal fungicidal concentration (MFC) against Candida albicans and against Cryptococcus neoformans was 100 µg/mL in each case. The MIC80 in the series with Candida albicans was 100 µg/mL; against Cryptococcus neoformans, 100 µg/mL; against Aspergillus fumigatus (strain DUMC 168.95) it was over 100 µg/mL. Further, the MIC with Candida albicans is 100 µg/mL; in the series on Cryptococcus neoformans, 100 µg/mL; in the series with Aspergillus fumigatus it was over 100 µg/mL. The concentration for half-maximal inhibition (IC50) was 2.5 nM in the series on Plasmodium falciparum (Tables VI(a), VI(c)); 15000 ± 1000 nM in the series on J774 macrophages; 21500 nM in “in vitro”; 1060 ± 180 nM in series [2] (setting [4]); 1060 ± 180 nM in series [2] (setting [5]); 12300 nM in the series with Trypanosoma cruzi (Tables VI(a), VI(c)). The IC50 in [3] (Tables VI(a), VI(c)) stood at 7.9 nM. Besides, the MIC90 in series [1] is 5.15 µg/mL and 11.6 µM. Besides, in the series with DNA, the “DNA binding Δ Tm” value was found to be 6.1. In series [2] (L. donovani vs. J774 macrophages), the “selectivity for axenic amastigotes over J774 macrophages (fold more active against the parasites compared to the mammalian host cells)” value turned out to be 14 fold.
On to `Cl.Cl.N=C(N)c1ccc(OCCCCCOc2cccc(-c3cc4ccc(C(=N)N)cc4o3)c2)cc1` [Compound 62, 2-(3-(5-(4-Carbamimidoylphenoxy)pentyloxy)phenyl)benzofuran-6-carboxamidine dihydrochloride], for which the melting point lay in the range of 178 to 182 °C. Also, in the series with Candida albicans, the minimum fungicidal concentration (MFC) was 1.56 µg/mL, the MIC80 was 0.39 µg/mL and the MIC was 0.39 µg/mL. Moreover, the IC50 with Plasmodium falciparum (Tables VI(a), VI(c)) amounted to 282 nM. For the same compound, in the series with Cryptococcus neoformans, the MFC was determined as 0.78 µg/mL, the MIC80 is 0.39 µg/mL and the MIC was found to be 0.39 µg/mL. In the series with Aspergillus fumigatus (strain DUMC 168.95), the minimum fungicidal concentration (MFC) was over 100 µg/mL and the MIC80 stood at 1.56 µg/mL. Moreover, the MIC in the series on Aspergillus fumigatus turned out to be 3.12 µg/mL. Besides, the MIC90 in series [1] is 0.65 µg/mL and 1.15 µM. Inhibition in the series on J774 macrophages was half-maximal at 5600 ± 300 nM (IC50). The compound also yielded an IC50 in the series “in vitro” of 4120 nM. Besides, in [2] (setting [4]), the IC50 was 5750 ± 60 nM. Further, the IC50 in series [2] (setting [5]) came out at 5750 ± 60 nM. In addition, in the series with Trypanosoma cruzi (Tables VI(a), VI(c)), the IC50 was found to be 8560 nM. For the same compound, the IC50 in series [3] (Tables VI(a), VI(c)) was determined as 531 nM.
